The results in this text go back to PubChem BioAssay AID1117354 (Cheminformatics & Chemogenomics Research Group (CCRG), …, 2015).

Active and inactive are the calls of the source. The rule behind the calls is not given here.

A word on the inhibition: it is the change of the read-out against control, counted positive when it falls.

This test deals with Tyrosine-protein kinase JAK2 (Homo sapiens) (UniProt O60674). Put plainly: primary HTS for Janus kinase 2 inhibitors, biochemical, Homo sapiens, LANCE Ultra TR-FRET detection, NCGC Pharmaceutical Collection (AID 1117354). As to conditions: LANCE Ultra TR-FRET kinase assay, at 20 µM (top of the series). In general terms: Time-resolved FRET reads energy transfer from a long-lived donor to a nearby acceptor.
Chain of Tyrosine-protein kinase JAK2 (Homo sapiens) (O60674 whole entry, looked up): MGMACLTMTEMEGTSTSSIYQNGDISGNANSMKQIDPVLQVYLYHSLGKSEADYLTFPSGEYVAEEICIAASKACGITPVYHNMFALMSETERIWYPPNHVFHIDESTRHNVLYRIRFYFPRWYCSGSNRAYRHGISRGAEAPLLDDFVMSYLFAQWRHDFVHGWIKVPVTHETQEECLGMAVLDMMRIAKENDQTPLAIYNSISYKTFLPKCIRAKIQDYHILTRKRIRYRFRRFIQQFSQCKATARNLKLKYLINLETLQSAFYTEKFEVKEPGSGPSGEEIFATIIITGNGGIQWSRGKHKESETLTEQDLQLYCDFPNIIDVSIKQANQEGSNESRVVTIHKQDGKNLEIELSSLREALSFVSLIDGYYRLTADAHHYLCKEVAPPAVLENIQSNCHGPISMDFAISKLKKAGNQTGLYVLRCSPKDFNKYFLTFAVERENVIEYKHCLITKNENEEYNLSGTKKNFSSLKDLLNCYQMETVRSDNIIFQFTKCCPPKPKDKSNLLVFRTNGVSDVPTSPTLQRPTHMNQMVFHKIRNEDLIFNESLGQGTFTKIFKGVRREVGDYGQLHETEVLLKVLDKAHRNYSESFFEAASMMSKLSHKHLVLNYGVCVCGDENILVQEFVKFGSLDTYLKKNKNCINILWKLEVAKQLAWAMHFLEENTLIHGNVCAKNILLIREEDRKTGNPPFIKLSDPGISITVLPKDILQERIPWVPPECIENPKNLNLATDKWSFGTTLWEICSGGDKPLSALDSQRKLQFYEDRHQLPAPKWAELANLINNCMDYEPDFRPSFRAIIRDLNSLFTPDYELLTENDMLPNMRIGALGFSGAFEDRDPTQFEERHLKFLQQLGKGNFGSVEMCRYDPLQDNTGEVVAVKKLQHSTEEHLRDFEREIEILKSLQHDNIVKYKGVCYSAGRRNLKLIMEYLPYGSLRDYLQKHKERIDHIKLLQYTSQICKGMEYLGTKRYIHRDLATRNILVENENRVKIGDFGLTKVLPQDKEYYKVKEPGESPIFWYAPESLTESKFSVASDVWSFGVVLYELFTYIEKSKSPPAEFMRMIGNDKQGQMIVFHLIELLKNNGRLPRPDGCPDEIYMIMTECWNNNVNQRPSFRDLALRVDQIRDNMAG
Turning to `Cc1ccc([N+](=O)[O-])[c]2c1[O][Hg]2`, the inhibition was 36.9% (inactive). Consider `CCN(CC)CCNC(=O)c1c(C)[nH]c(/C=C2\C(=O)Nc3ccc(F)cc32)c1C`, for which the inhibition is 97.3%. Regarding `O=c1c(-c2ccccc2)c1-c1ccccc1`, the inhibition is -9.18% (inactive).

Take `O=c1[nH]c(=O)n([C@H]2C[C@H](O)[C@@H](CO)O2)cc1F`: the inhibition is -18.6% (inactive). For `O=[N+]([O-])c1ccc(O)c2ncccc12`, the inhibition is 1.93% (inactive).

Regarding `Cc1nc(N)nc(N)c1-c1ccc(Cl)c(Cl)c1`, the inhibition was -2.13% (inactive).
